Calls of active or inactive are those of the source. The calls are words filed in the database; no cut-off is given here.
Columns and labels:
[1] = Cytotoxicity against mouse L929 cells by CCK-8 assay; type: toxicity, cell-based
[2] = target: T1, Receptor-interacting serine/threonine-protein kinase 1 (Homo sapiens, UniProt Q13546); assay: Inhibition of RIPK1 (unknown origin) using MBP substrate incubated for 2 hrs by ADP-Glo kinase function assay
T1 sequence (Q13546 whole entry): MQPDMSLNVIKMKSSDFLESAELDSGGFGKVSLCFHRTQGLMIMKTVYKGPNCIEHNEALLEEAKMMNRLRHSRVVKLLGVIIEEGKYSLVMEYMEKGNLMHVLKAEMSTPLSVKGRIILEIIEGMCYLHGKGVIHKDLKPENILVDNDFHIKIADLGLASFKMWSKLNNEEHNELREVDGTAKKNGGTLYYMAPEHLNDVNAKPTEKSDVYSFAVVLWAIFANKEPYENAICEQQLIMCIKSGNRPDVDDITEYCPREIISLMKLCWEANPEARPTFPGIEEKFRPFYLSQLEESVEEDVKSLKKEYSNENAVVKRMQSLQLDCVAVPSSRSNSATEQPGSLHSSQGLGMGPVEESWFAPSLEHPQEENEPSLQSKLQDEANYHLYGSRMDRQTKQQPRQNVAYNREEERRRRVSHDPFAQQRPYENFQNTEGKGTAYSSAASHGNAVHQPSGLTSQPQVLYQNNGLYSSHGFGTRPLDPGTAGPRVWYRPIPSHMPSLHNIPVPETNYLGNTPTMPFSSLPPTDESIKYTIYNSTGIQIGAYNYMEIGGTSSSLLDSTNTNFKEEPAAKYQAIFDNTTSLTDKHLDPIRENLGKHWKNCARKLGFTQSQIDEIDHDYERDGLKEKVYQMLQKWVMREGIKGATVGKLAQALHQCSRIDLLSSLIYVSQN

[3] = test system: L929; assay: Anti-necroptosis activity against TNFalpha/z-VAD-fmk-induced mouse L929 cell necroptosis model assessed as cell viability pretreated with compound for 1 hr followed by treated with TZ for 6 hrs; type: functional, cell-based
[4] = test system: HT-29; assay: Anti-necroptosis activity against TS-induced human HT-29 cell necroptosis model assessed as cell viability at 0.039 to 10 uM pretreated with compound for 1 hr followed by treated with TS for 12 hrs; type: functional, cell-based; conditions: dose 0.039-10 µM
[5] = test system: Mus musculus; assay: In vivo anti-necroptotic effect in TNFalpha-induced systemic inflammatory response syndrome C57BL/6J mouse model assessed as reduction in hypothermic injury by measuring increase in survival at 10 mg/kg, ip followed by compound treatment after 1 hr injected moue TNFalpha and measured continuously upto 72 hrs; type: functional; conditions: time 73 hrs

SMILES	IC50 [2] [nM]	CC50 [1] [nM]	EC50 [3] [nM]	Activity [4]	survival at 10 mg/kg [5] [%]
Oc1ccccc1-c1cnc2[nH]ccc2c1		> 50000	> 10000		
O=C(c1ccc(-c2cc3cccnc3[nH]2)cc1)N1CCCC1	140	> 50000	260		
c1ccc(Oc2ccccc2-c2cnc3[nH]ccc3c2)cc1		> 20000	> 10000		
Oc1ccc(-c2ccc3cc[nH]c3n2)cc1		> 50000	> 10000		
Oc1ccc(-c2cnc3[nH]cnc3c2)cc1		> 50000	> 10000		
Oc1ccc(-c2cc3cccnc3[nH]2)cc1F	2560	> 50000	1180		
Oc1ccc(-c2cnc3nccnc3c2)cc1		> 50000	> 10000		
CC(C)N(C(=O)c1ccc(-c2cc3cccnc3[nH]2)cc1)C(C)C	130	> 50000	190		
CC(C)(C)Oc1ccc(-c2cnc3[nH]ccc3c2)cc1		> 20000	> 10000		
O=C(c1ccc(-c2cc3cccnc3[nH]2)cc1)N1CCCCC1	120	> 50000	130		
c1cnc2[nH]c(-c3ccc4c(c3)CCCO4)cc2c1	1180	> 50000	890		
Oc1ccc(-c2cc3cccnc3[nH]2)cc1Cl	3870	> 50000	5140		
c1cnc2[nH]c(-c3ccc4ncsc4c3)cc2c1	350	> 50000	340		
Oc1ccc(-c2cc3cccnc3[nH]2)cc1		> 50000	1310	inactive	
O=C(c1ccc(-c2cc3cccnc3[nH]2)cc1)N1CCNCC1	100	> 50000	90		
COc1cc(-c2cc3cccnc3[nH]2)ccc1O	120	> 50000	140		
c1ccc(Oc2ccc(-c3cc4cccnc4[nH]3)cc2)cc1	9000	> 50000	7540		
Oc1ccccc1-c1cc2cccnc2[nH]1	950	> 50000	1140		
Oc1ccc(-c2c[nH]c3ncccc23)cc1		> 50000	> 10000		
Oc1ccc(-c2ccnc3[nH]ccc23)cc1		> 50000	> 10000		
Oc1cccc(-c2cnc3[nH]ccc3c2)c1		> 50000	> 10000		
CN1CCN(C(=O)c2ccc(-c3cc4cccnc4[nH]3)cc2)CC1	100	> 20000	60		
Oc1cccc(-c2cc3cccnc3[nH]2)c1	1080	> 50000	1230		
CN1C(=O)C(Cc2c[nH]c3ccccc23)NC1=S (stereo unspecified) [NECROSTATIN]					25

Now from value to compound, other results behind:

IC50 [2] [nM]	SMILES	CC50 [1] [nM]	EC50 [3] [nM]	Activity [4]	survival at 10 mg/kg [5] [%]
90	CC(C)(C)NC(=O)c1ccc(-c2cc3cccnc3[nH]2)cc1	> 50000	170		
4860	Oc1ccc(-c2cnc3[nH]ccc3n2)cc1	> 50000	5100		
220	CC(C)(C)Oc1ccc(-c2cc3cccnc3[nH]2)cc1	> 50000	170		
630	CCCNC(=O)c1ccc(-c2cc3cccnc3[nH]2)cc1	> 50000	810		
3660	O/N=C/c1ccc(-c2cnc3[nH]ccc3c2)cc1	> 20000	4270		
270	O/N=C/c1ccc(-c2cc3cccnc3[nH]2)cc1	> 50000	670		
2600	Oc1ccc2ccc(-c3cc4cccnc4[nH]3)cc2c1	> 50000	1420		
90	COc1ccc(-c2cc3ccc[nH]c-3n2)cc1	> 50000	150		
200	O=C(NC1CC1)c1ccc(-c2cc3cccnc3[nH]2)cc1	> 50000	190		
1170	N#Cc1ccc(-c2cnc3[nH]ccc3c2)cc1	> 50000	1850		
93	CNC(=O)c1ccc(-c2cc3cccnc3[nH]2)cc1	> 50000	95		
230	Oc1ccc(-c2ccc(-c3cc4cccnc4[nH]3)cc2)cc1	> 10000	350		
170	OCc1ccc(-c2cc3cccnc3[nH]2)cc1	> 50000	140		
1090	Oc1ccc(-c2cnc3[nH]ccc3c2)cc1	> 50000	1470		
500	CC(C)NC(=O)c1ccc(-c2cc3cccnc3[nH]2)cc1	> 50000	810		
110	NC(=O)c1ccc(-c2cc3cccnc3[nH]2)cc1	> 50000	90		
170	NC(=O)c1ccc(-c2cnc3[nH]ccc3c2)cc1	> 50000	710		
240	Nc1ccc(-c2cc3cccnc3[nH]2)cc1	> 50000	270		
230	OCCc1ccc(-c2cc3cccnc3[nH]2)cc1	> 50000	300		
180	CCNC(=O)c1ccc(-c2cc3cccnc3[nH]2)cc1	> 50000	240		

Reference: ChEMBL document CHEMBL5385887, “Discovery of Sibiriline derivatives as novel receptor-interacting protein kinase 1 inhibitors” (Eur J Med Chem, 2023)
